The supplement of paper PMC13207355

Assays:
Conditions in all cases: exposure time: 72 h
[1] = tested on: FT3469 (normal neural stem cell line); experiment: surviving fraction (nuclei count normalised to DMSO); higher = more cells surviving (less toxic)
[2] = tested on: E28 (patient-derived glioblastoma stem cells of classical subtype); experiment: as above
[3] = tested on: E57 (patient-derived glioblastoma stem cells of mesenchymal subtype); experiment: as above
[4] = tested on: E21 (patient-derived glioblastoma stem cells of mesenchymal subtype); experiment: as above
[5] = tested on: E34 (patient-derived glioblastoma stem cells of proneural subtype); experiment: as above
[6] = tested on: E31 (patient-derived glioblastoma stem cells of proneural subtype); experiment: as above
[7] = tested on: E13 (patient-derived glioblastoma stem cells of classical subtype); experiment: as above
[8] = tested on: FT3469; experiment: phenotypic distance (Euclidean, principal components) from DMSO controls (arbitrary units); higher = stronger morphological change
[9] = tested on: E28; experiment: as above
[10] = tested on: E57; experiment: as above
[11] = tested on: E21; experiment: as above
[12] = tested on: E34; experiment: as above
[13] = tested on: E31; experiment: as above
[14] = tested on: E13; experiment: as above
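Wherever phenotypic distance (Euclidean, principal components) from DMSO controls is given: cell Painting imaging in 384-well plates, CellProfiler features reduced to at least 20 principal components, Euclidean distance versus same-plate DMSO vehicle wells (0.1% v/v), median over six images per well.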
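Wherever surviving fraction (nuclei count normalised to DMSO) is given: nuclei counted by high-content imaging of Hoechst-stained cells in laminin-coated 384-well plates, relative to 0.1% DMSO vehicle wells, with staurosporine as cell-death control.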

Nc1ncn(C2OC(CO)C(O)C2O)c(=O)n1 (stereo unspecified) [Azacytidine-5]
Conditions | phenotypic distance | surviving fraction
[1], 4.1 nM | – | 0.953
[1], 12.3 nM | – | 1
[1], 37 nM | – | 1.1
[1], 111.1 nM | – | 0.935
[1], 333.3 nM | – | 0.809
[1], 1000 nM | – | 1.04
[1], 3000 nM | – | 0.906
[2], 4.1 nM | – | 0.969
[2], 12.3 nM | – | 1.09
[2], 37 nM | – | 0.969
[2], 111.1 nM | – | 1.1
[2], 333.3 nM | – | 0.952
[2], 1000 nM | – | 1.15
[2], 3000 nM | – | 0.764
[3], 4.1 nM | – | 0.979
[3], 12.3 nM | – | 1.09
[3], 37 nM | – | 0.948
[3], 111.1 nM | – | 0.974
[3], 333.3 nM | – | 0.859
[3], 1000 nM | – | 0.702
[3], 3000 nM | – | 0.411
[4], 4.1 nM | – | 0.945
[4], 12.3 nM | – | 0.932
[4], 37 nM | – | 1.07
[4], 111.1 nM | – | 0.892
[4], 333.3 nM | – | 0.978
[4], 1000 nM | – | 0.779
[4], 3000 nM | – | 0.634
[5], 4.1 nM | – | 0.935
[5], 12.3 nM | – | 0.979
[5], 37 nM | – | 0.89
[5], 111.1 nM | – | 1.09
[5], 333.3 nM | – | 1.04
[5], 1000 nM | – | 0.914
[5], 3000 nM | – | 0.858
[6], 4.1 nM | – | 0.962
[6], 12.3 nM | – | 0.827
[6], 37 nM | – | 0.96
[6], 111.1 nM | – | 0.986
[6], 333.3 nM | – | 1.04
[6], 1000 nM | – | 0.731
[6], 3000 nM | – | 0.439
[7], 4.1 nM | – | 0.948
[7], 12.3 nM | – | 0.902
[7], 37 nM | – | 0.957
[7], 111.1 nM | – | 1
[7], 333.3 nM | – | 1.01
[7], 1000 nM | – | 0.894
[7], 3000 nM | – | 0.634
[8], 4.1 nM | 0.816 | –
[8], 12.3 nM | 0.612 | –
[8], 37 nM | 0.486 | –
[8], 111.1 nM | 1.17 | –
[8], 333.3 nM | 0.757 | –
[8], 1000 nM | 0.865 | –
[8], 3000 nM | 1.77 | –
[9], 4.1 nM | 0.577 | –
[9], 12.3 nM | 0.65 | –
[9], 37 nM | 0.956 | –
[9], 111.1 nM | 0.825 | –
[9], 333.3 nM | 3.86 | –
[9], 1000 nM | 0.76 | –
[9], 3000 nM | 1.01 | –
[10], 4.1 nM | 0.265 | –
[10], 12.3 nM | 1.15 | –
[10], 37 nM | 0.6 | –
[10], 111.1 nM | 0.593 | –
[10], 333.3 nM | 1.38 | –
[10], 1000 nM | 2.03 | –
[10], 3000 nM | 3.86 | –
[11], 4.1 nM | 1.45 | –
[11], 12.3 nM | 0.512 | –
[11], 37 nM | 0.843 | –
[11], 111.1 nM | 1.36 | –
[11], 333.3 nM | 1.28 | –
[11], 1000 nM | 1.92 | –
[11], 3000 nM | 2.82 | –
[12], 4.1 nM | 0.787 | –
[12], 12.3 nM | 0.546 | –
[12], 37 nM | 0.387 | –
[12], 111.1 nM | 0.835 | –
[12], 333.3 nM | 0.732 | –
[12], 1000 nM | 0.672 | –
[12], 3000 nM | 1.24 | –
[13], 4.1 nM | 0.548 | –
[13], 12.3 nM | 0.901 | –
[13], 37 nM | 0.564 | –
[13], 111.1 nM | 0.874 | –
[13], 333.3 nM | 1.27 | –
[13], 1000 nM | 1.11 | –
[13], 3000 nM | 2.48 | –
[14], 4.1 nM | 0.774 | –
[14], 12.3 nM | 0.925 | –
[14], 37 nM | 0.631 | –
[14], 111.1 nM | 1.16 | –
[14], 333.3 nM | 1.01 | –
[14], 1000 nM | 2.56 | –
[14], 3000 nM | 4.39 | –

C/C=C(\C)C(=O)N[C@@H](c1ccccc1)[C@@H](O)C(=O)O[C@H]1C[C@@]2(O)[C@@H](OC(=O)c3ccccc3)[C@@H]3[C@]4(OC(C)=O)CO[C@@H]4C[C@H](O)[C@@]3(C)C(=O)[C@H](OC(C)=O)C(=C1C)C2(C)C [Cephalomannine]
Conditions | phenotypic distance | surviving fraction
[1], 4.11523 nM | – | 0.62
[1], 12.34567901 nM | – | 0.646
[1], 37.037 nM | – | 0.577
[1], 111.1111111 nM | – | 0.441
[1], 333.333 nM | – | 0.378
[1], 1000 nM | – | 0.465
[1], 3000 nM | – | 0.449
[2], 4.11523 nM | – | 0.515
[2], 12.34567901 nM | – | 0.557
[2], 37.037 nM | – | 0.304
[2], 111.1111111 nM | – | 0.357
[2], 333.333 nM | – | 0.302
[2], 1000 nM | – | 0.286
[2], 3000 nM | – | 0.249
[3], 4.11523 nM | – | 0.156
[3], 12.34567901 nM | – | 0.125
[3], 37.037 nM | – | 0.0853
[3], 111.1111111 nM | – | 0.0579
[3], 333.333 nM | – | 0.0628
[3], 1000 nM | – | 0.0598
[3], 3000 nM | – | 0.0598
[4], 4.11523 nM | – | 0.335
[4], 12.34567901 nM | – | 0.327
[4], 37.037 nM | – | 0.209
[4], 111.1111111 nM | – | 0.246
[4], 333.333 nM | – | 0.213
[4], 1000 nM | – | 0.214
[4], 3000 nM | – | 0.198
[5], 4.11523 nM | – | 0.497
[5], 12.34567901 nM | – | 0.442
[5], 37.037 nM | – | 0.356
[5], 111.1111111 nM | – | 0.284
[5], 333.333 nM | – | 0.293
[5], 1000 nM | – | 0.356
[5], 3000 nM | – | 0.382
[6], 4.11523 nM | – | 0.23
[6], 12.34567901 nM | – | 0.132
[6], 37.037 nM | – | 0.12
[6], 111.1111111 nM | – | 0.11
[6], 333.333 nM | – | 0.0834
[6], 1000 nM | – | 0.12
[6], 3000 nM | – | 0.148
[7], 4.11523 nM | – | 0.308
[7], 12.34567901 nM | – | 0.245
[7], 37.037 nM | – | 0.27
[7], 111.1111111 nM | – | 0.137
[7], 333.333 nM | – | 0.171
[7], 1000 nM | – | 0.171
[7], 3000 nM | – | 0.19
[8], 4.11523 nM | 2.71 | –
[8], 12.34567901 nM | 2.83 | –
[8], 37.037 nM | 3.01 | –
[8], 111.1111111 nM | 3.67 | –
[8], 333.333 nM | 3.37 | –
[8], 1000 nM | 3.99 | –
[8], 3000 nM | 4.09 | –
[9], 4.11523 nM | 3.22 | –
[9], 12.34567901 nM | 3.3 | –
[9], 37.037 nM | 3.65 | –
[9], 111.1111111 nM | 3.5 | –
[9], 333.333 nM | 3.82 | –
[9], 1000 nM | 3.7 | –
[9], 3000 nM | 4.32 | –
[10], 4.11523 nM | 5.45 | –
[10], 12.34567901 nM | 5.1 | –
[10], 37.037 nM | 5.59 | –
[10], 111.1111111 nM | 5.43 | –
[10], 333.333 nM | 5.14 | –
[10], 1000 nM | 5.43 | –
[10], 3000 nM | 5.27 | –
[11], 4.11523 nM | 4.99 | –
[11], 12.34567901 nM | 5.05 | –
[11], 37.037 nM | 5.62 | –
[11], 111.1111111 nM | 6.2 | –
[11], 333.333 nM | 5.44 | –
[11], 1000 nM | 6.44 | –
[11], 3000 nM | 7.14 | –
[12], 4.11523 nM | 3.55 | –
[12], 12.34567901 nM | 3.84 | –
[12], 37.037 nM | 3.81 | –
[12], 111.1111111 nM | 3.17 | –
[12], 333.333 nM | 3.79 | –
[12], 1000 nM | 3.73 | –
[12], 3000 nM | 3.93 | –
[13], 4.11523 nM | 3.6 | –
[13], 12.34567901 nM | 4.39 | –
[13], 37.037 nM | 3.82 | –
[13], 111.1111111 nM | 4.56 | –
[13], 333.333 nM | 4.66 | –
[13], 1000 nM | 3.37 | –
[13], 3000 nM | 3.61 | –
[14], 4.11523 nM | 4.23 | –
[14], 12.34567901 nM | 4.51 | –
[14], 37.037 nM | 4.54 | –
[14], 111.1111111 nM | 6.45 | –
[14], 333.333 nM | 5.33 | –
[14], 1000 nM | 5.74 | –
[14], 3000 nM | 5.58 | –
